ChEMBL document CHEMBL1144237, “Novel HCV NS5B polymerase inhibitors derived from 4-(1',1'-dioxo-1',4'-dihydro-1'lambda(6)-benzo[1',2',4']thiadiazin-3'-yl)-5-hydroxy-2H-pyridazin-3-ones. Part 5: Exploration of pyridazinones containing 6-amino-substituents” (Bioorg Med Chem Lett, 2008)

Test: Apparent permeability across human Caco-2 cell membrane
Type: ADME, cell-based

Papp | SMILES
0.77 ×10⁻⁶ cm/s | CC(C)CCn1nc(N(C)C(C)C)c(O)c(C2=NS(=O)(=O)c3cc(NS(C)(=O)=O)ccc3N2)c1=O
0.3 ×10⁻⁶ cm/s | CCN(CC)c1nn(CCC(C)C)c(=O)c(C2=NS(=O)(=O)c3cc(NS(C)(=O)=O)ccc3N2)c1O
0.12 ×10⁻⁶ cm/s | CCCN(C)c1nn(CCC(C)C)c(=O)c(C2=NS(=O)(=O)c3cc(NS(C)(=O)=O)ccc3N2)c1O

The next lines start with the molecule.

SMILES | Papp
CC(C)CCn1nc(-c2cccs2)c(O)c(C2=Nc3ccc(NS(C)(=O)=O)cc3S(=O)(=O)N2)c1=O | 0.02 ×10⁻⁶ cm/s
CS(=O)(=O)Nc1ccc2c(c1)S(=O)(=O)N=C(c1c(O)c(N3CCCC3)nn(CCC3CC3)c1=O)N2 | 0.22 ×10⁻⁶ cm/s
CC(C)(C)CCn1nc(N2CCCC2)c(O)c(C2=NS(=O)(=O)c3cc(NS(C)(=O)=O)ccc3N2)c1=O | 0.37 ×10⁻⁶ cm/s
CC(C)CCn1nc(N2CCOCC2)c(O)c(C2=NS(=O)(=O)c3cc(NS(C)(=O)=O)ccc3N2)c1=O | 0.021 ×10⁻⁶ cm/s
CC(C)CCn1nc(N2CCCC2)c(O)c(C2=Nc3ccc(NS(C)(=O)=O)cc3S(=O)(=O)N2)c1=O | 0.32 ×10⁻⁶ cm/s
